Measurements reported in ChEMBL document CHEMBL1136793, “First dual aromatase-steroid sulfatase inhibitors” (J Med Chem, 2003).
The source made the active and inactive calls. The calls are words filed in the database; no cut-off is given here.

Assays:
[1] = biological target: T1, Steryl-sulfatase (Homo sapiens) (UniProt P08842); conditions: 3.3 nM
T1 sequence (whole entry): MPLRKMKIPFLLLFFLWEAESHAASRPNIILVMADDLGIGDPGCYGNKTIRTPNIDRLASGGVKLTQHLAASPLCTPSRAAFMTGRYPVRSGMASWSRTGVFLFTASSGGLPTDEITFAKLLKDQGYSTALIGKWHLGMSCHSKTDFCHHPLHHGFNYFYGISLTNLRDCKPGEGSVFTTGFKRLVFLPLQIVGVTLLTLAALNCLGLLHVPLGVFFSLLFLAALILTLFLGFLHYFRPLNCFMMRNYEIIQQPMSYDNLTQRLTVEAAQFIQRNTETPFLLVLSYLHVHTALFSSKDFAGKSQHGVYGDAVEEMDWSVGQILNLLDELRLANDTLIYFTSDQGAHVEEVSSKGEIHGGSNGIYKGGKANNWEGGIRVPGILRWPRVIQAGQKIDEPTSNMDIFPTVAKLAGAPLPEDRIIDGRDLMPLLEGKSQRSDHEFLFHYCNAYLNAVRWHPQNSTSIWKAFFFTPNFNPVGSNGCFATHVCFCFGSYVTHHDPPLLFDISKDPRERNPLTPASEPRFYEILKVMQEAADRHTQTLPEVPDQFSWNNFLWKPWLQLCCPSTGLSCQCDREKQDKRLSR
Description: In vitro inhibition of [6,7-3H]E1S binding to steroid sulfatase in JEG-3 human placental carcinoma cells at 3.3 nM

Aromatase [2] = biological target: T2, Aromatase (Homo sapiens, UniProt P11511); experiment: Percent reduction in aromatase P450 19A1 binding inhibition after JEG-3 cell pretreatment at 1 uM (from 86.5+/-1.4% to 23+/-1%); type: cell-based; conditions: jeg-3, 1 µM
T2 sequence (P11511 whole entry): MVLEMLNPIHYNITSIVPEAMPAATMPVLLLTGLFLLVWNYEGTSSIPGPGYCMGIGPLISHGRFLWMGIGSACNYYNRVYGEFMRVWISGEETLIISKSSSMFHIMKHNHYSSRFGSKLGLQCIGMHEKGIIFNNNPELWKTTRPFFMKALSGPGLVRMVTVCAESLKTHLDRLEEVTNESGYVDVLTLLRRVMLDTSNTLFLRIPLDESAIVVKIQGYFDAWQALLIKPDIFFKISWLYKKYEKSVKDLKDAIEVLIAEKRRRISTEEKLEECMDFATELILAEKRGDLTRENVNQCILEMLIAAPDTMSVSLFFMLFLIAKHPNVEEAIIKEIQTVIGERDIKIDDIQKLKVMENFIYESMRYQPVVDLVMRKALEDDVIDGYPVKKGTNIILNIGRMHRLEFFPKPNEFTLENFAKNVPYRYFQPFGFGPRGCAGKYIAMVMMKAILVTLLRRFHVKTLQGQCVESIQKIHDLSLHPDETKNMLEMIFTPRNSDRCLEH

[3] = biological target: T1, Steryl-sulfatase (Homo sapiens); conditions: JEG-3, 1 uM
[4] = biological target: T1, Steryl-sulfatase (Homo sapiens); experiment: In vitro inhibition of [6,7-3H]E1S binding to steroid sulfatase in JEG-3 human placental carcinoma cells; Not active
Aromatase [5] = biological target: T2, Aromatase
Description: In vitro inhibition of [1-beta-3H]-androstenedione binding to Cytochrome P450 19A1 of JEG-3 human placental carcinoma cells

**Q.** With `NS(=O)(=O)Oc1ccc2c3c(c(=O)oc2c1)CCCCC3` as the compound, how does the inhibition [1] read?
**A.** The inhibition was 50%.

**Q.** What does the source list for `N#Cc1ccc(N(Cc2ccc(OS(N)(=O)=O)cc2)n2cnnc2)cc1`?
**A.** Reduction (Aromatase [2]): 63.5%; NS [3]: inactive

**Q.** How did the NA [4] turn out when `N#Cc1ccc(N(Cc2ccc(Br)cc2)n2cnnc2)cc1` was run?
**A.** The NA was “inactive”.

**Q.** And the IC50 (Aromatase [5])?
**A.** The IC50 was 0.5 nM.
